This passage reports melting point results from a melting point compilation (Tetko et al.; mined from patent text by program, amines drawn as free bases though some values may be those of a salt).

Each structure is given as a SMILES string. Non-standard residues stand in square brackets, D forms with d. Residues, ends and D or L forms follow the SMILES beside them. *: point of attachment. Npys = O=[N+]([O-])c1cccnc1S*; Leu(ol) = CC(C)C[C@H](N)CO; Mpa = O=C(O)CCS

Usually melting point stands for the temperature, or range, at which the solid turns liquid.

In turn, `CC(C)(C)[C@@H](NS(=O)(=O)c1ccc(Oc2ccc(Cl)cc2)cc1)C(=O)O` came in with a melting point of 138 to 140 °C.

In the case of `C#CCN1C(=O)c2ccccc2C1O` (stereo not given), the melting point is 157 to 159 °C.

Compound `COC1CCN2C(=O)c3cccc(N)c3C2C1` (stereo not given) gave a melting point of 60 to 62 °C.

On to `CCN1C(=O)CCC(C)(C)c2cc(Nc3ncc(Cl)c(Nc4ccc(N5CCOCC5)cc4OC)n3)ccc21`, for which the melting point was 255 °C.

With `COc1ccc(C2=NN(c3ccc(OCc4ccccc4)cc3)C(=O)[C@@H]3CC=CC[C@H]23)cc1OC`, the melting point is 104 to 105 °C.

The compound `Clc1ccc(-c2cc(C3CC3)n3ncc(I)c3n2)cc1` yielded a melting point of 189 to 190 °C.

Take `CC(=O)c1cc(N(C)C)ccc1NC(=O)c1cccc(OCc2ccccc2)c1`: the melting point fell in the range of 147 to 149 °C.

As for `CCOC(=O)C1=C(COCc2nc(CCN3C(=O)c4ccccc4C3=O)cs2)NC(C)=C(C(=O)OC)C1c1ccccc1Cl` (stereo not given), the melting point is 156 to 157 °C.

Turning to `CC(=O)Oc1c(C(C)C)cc(NC(=O)Nc2cnc3c(C)cc(C)cc3c2-c2ccccc2Cl)cc1C(C)C`, the melting point was in the range of 248 to 249 °C.

In turn, `Cc1ncc([N+](=O)[O-])n1CCN(CCCCCCCCN(CCn1c([N+](=O)[O-])cnc1C)CCn1c([N+](=O)[O-])cnc1C)CCn1c([N+](=O)[O-])cnc1C` yielded a melting point of 157 to 158 °C.

In turn, `CC(C)(C)c1ccc(-c2[nH]c3nccnc3c2CCCO)cc1` registered a melting point of 187 to 189 °C.

`O=C(O)[C@@H]1C[C@@H](c2ccccc2)CN1C(=O)c1ccccc1Br` came in with a melting point of 146 to 147 °C.

Take `CC(C)C(S)C(=O)NC1(C(=O)NC(Cc2ccc(-c3ccoc3)nc2)C(=O)O)CCCC1` (stereo not given): the melting point was in the range of 52 to 55 °C.

`O=C(O)c1cnc(Nc2ccccc2O)[nH]c1=O` displayed a melting point of 254 to 256 °C.

Turning to `CSc1nc(=O)cc(N)n1-c1ccc(Br)cc1`, the melting point was 138 to 140 °C.

As to `COC(=O)[C@@H]1CCCN1S(=O)(=O)c1ccc(Cl)c(COc2cccc3c(C)cc(C)nc23)c1Cl`, the melting point amounted to 138 °C.

For the compound `Cc1cnnc2c1C(=O)CC(c1ccccc1Cl)C2` (stereo not given), the melting point lay within 108 to 109 °C.

As to `O=C(Nc1ccc(C(F)(F)F)cc1)c1ccc(C=NO)cc1`, the melting point lay within 221 to 222 °C.

`Cc1ccc(Cl)c2sc(N)nc12` showed a melting point of 206 °C.

In turn, `CNCC(O)c1cccc(F)c1` (stereo not given) returned a melting point of 63 to 65 °C.

On to `O=C(O)c1coc2ccc(Br)cc2c1=O`, for which the melting point lay within 260 to 264 °C.

For the compound `CN1C(=O)C(=O)c2cc([N+](=O)[O-])cc(C(F)(F)F)c21`, the melting point was in the range of 168 to 169 °C.

Take `CCOC(=O)C(CC)C(=O)N1NCCCC1C(=O)OC(C)(C)C` (stereo not given): the melting point was in the range of 78 to 79 °C.

On to `COc1c(N2C[C@H]3C(CF)C[C@@]3(N)C2)c(F)cc2c(=O)c(C(=O)O)cn([C@@H]3C[C@@H]3F)c12` (stereo not given in full), for which the melting point fell in the range of 122 to 125 °C.

`N#CCS(=O)(=O)C=C1N(CCCN2CCCCC2)CCN1CCCN1CCCCC1`: the melting point was 105 to 107 °C.

For the compound `O=C(CCCN1CCC(c2ccccc2)CC1)c1ccc2c(c1)Cc1cc(C(=O)CCCN3CCC(c4ccccc4)CC3)ccc1-2`, the melting point lay in the range of 190 to 192 °C.

The compound `Cc1cccc(C(N)=O)c1Nc1nc(Nc2ccc3c(c2)N(C(C)C)C(=O)CCC3)ncc1Cl` registered a melting point of 140 to 160 °C.

Consider `Cn1ncc(N2CCN(CC=Cc3ccccc3)CC2)c(Cl)c1=O`, for which the melting point is 98 to 100 °C.

In the case of `Cn1c(=O)c(-c2ccc(Cl)cc2Cl)cc2c3cc(-c4nc(NC(=O)C5CC5)no4)ccc3n(C)c21`, the melting point was in the range of 292 to 295 °C.

On to `COc1c(OS(C)(=O)=O)ccc2[nH]ncc12`, for which the melting point lay in the range of 130 to 131 °C.

Turning to `COc1ccc(C(=O)c2cc([N+](=O)[O-])ccc2N2CCC(C)CC2)cc1`, the melting point was determined as 119 °C.

For `COC(=O)c1ccc(OC2=C3N=C4CCCCC4=C3C(Cc3cccc(F)c3)C=C2)o1` (stereo not given), the melting point lay in the range of 86 to 88 °C.

As for `ClC(Cl)(Cl)c1nc(-c2ccc(OCCCn3ccnc3)cc2)no1`, the melting point was in the range of 102 to 103 °C.

`Cc1cc(F)c2ncc(C(=O)NNc3ccc(Cl)cc3)c(O)c2c1` yielded a melting point of 256 to 258 °C.

Regarding `COc1cc2nc(N3CCN(C(=O)C=Cc4ccc(Cl)c(Cl)c4)CC3)nc(N)c2cc1OC`, the melting point lay within 196 to 198 °C.

Compound `O=C(Cc1ccc(I)cc1)NC[C@H]1CCCN1` had a melting point of 120 °C.

Compound `Clc1ccc(C#Cc2ccc(Br)cc2)cc1` displayed a melting point of 179 °C.

`CCC12CCC3=C(CCc4cc(OC)ccc43)C1CCC2=O` (stereo not given) came in with a melting point of 110 to 125 °C.

As for `Nc1ccc(Nc2c(NCc3ccccc3)cc(C(=O)O)cc2S(=O)(=O)Nc2ccc(N)cc2)cc1`, the melting point turned out to be 238 °C.

`Cc1cc(C(N)=O)co1` registered a melting point of 158 °C.

`CCOC(=O)c1c(CSc2ccccc2)n(C)c2cc(Br)c(O)c(CN(C)C)c12` gave a melting point of 127 to 128 °C.

In turn, `C=CCN1C(=O)C2CC(c3ccc(N)cc3)(C2)C1=O` registered a melting point of 176 to 178 °C.

Compound `CCOC(=O)CCc1cn(-c2ccc(C(F)(F)F)cc2)nc1OCC` yielded a melting point of 47 to 48 °C.

The compound `N#CC1CN1C(=O)C1(c2ccc(Cl)cc2)CCCC1` (stereo not given) had a melting point of 80 to 82 °C.

For `CCOC(=O)c1cc(Cl)c2cccc(OC)c2n1`, the melting point was in the range of 131 to 132 °C.

As to `OC1CCCC2C3CCCCCCC3C12` (stereo not given), the melting point stood at 142 °C.

For `Cc1noc(NS(=O)(=O)c2ccccc2-c2ccc(-c3ncco3)cc2CN2CCN(C)C2=O)c1C`, the melting point lay in the range of 105 to 115 °C.

Consider `CCCCC(Cc1ccc(OCCNC(=O)c2ccc(-c3cccc(CN(C)C)c3)cc2)cc1)C(=O)O` (stereo not given), for which the melting point was in the range of 95 to 97 °C.

Consider `CC(=O)Oc1ccc2c(c1)CCC1C2CCC2(C)C(OC(=O)c3ccccc3)CCC12` (stereo not given), for which the melting point was 148 to 150 °C.

Take `Cc1nc2ccc3c(c2o1)OC(CN1C2CCC1CC(O)(c1cccc(C(F)(F)F)c1)C2)CO3` (stereo not given): the melting point is 148 to 150 °C.

Turning to `CCCCCCCNC(=O)N(C)c1ccc(C)c(-c2ccc(C=CC(=O)O)cc2)c1`, the melting point is 159 °C.

On to `CC(=O)OCC1OC(n2cc(C3=C(n4ccnc4)C(=O)N(C)C3=O)c3cccnc32)C(OC(C)=O)C(OC(C)=O)C1OC(C)=O` (stereo not given), for which the melting point was 88 to 90 °C.

`OCc1c(-c2ccccc2)c(-c2ccccc2)nn1Cc1ccccc1` gave a melting point of 138 °C.

In the case of `COc1cc(SC#N)cc(C#N)c1N`, the melting point was in the range of 121 to 122 °C.

As for `CCN(CC(C)(C)C)c1nc2c(cc1CN(Cc1cc(C(F)(F)F)cc(C(F)(F)F)c1)c1nnn(C)n1)c(C)nn2C`, the melting point lay in the range of 72 to 73 °C.

Take `Cc1cc(Oc2ncc(Cl)cc2Cl)n[nH]1`: the melting point lay in the range of 109 to 111 °C.

`CC(=O)OCC1OC(SC(c2ccccc2)(c2ccccc2)c2ccccc2)C(OC(C)=O)C(OC(C)=O)C1OC(C)=O` (stereo not given): the melting point fell in the range of 178 to 180 °C.

Compound `Cc1nc(N2CCN(Cc3ccc(OC(F)(F)F)cc3)C2=O)sc1C(=O)Nc1ccccc1` returned a melting point of 187 to 188 °C.

In turn, `Cc1cc2c(cc1C)-n1ccnc1C=C(c1ccc(-n3c(C)nc4cnccc43)cc1)N2` gave a melting point of 193 to 195 °C.

On to `CCOC(=O)c1cc([N+](=O)[O-])c(N)nc1C(=O)OCC`, for which the melting point is 120 to 122 °C.

In the case of `Cn1c(CC#N)ccc1C(=O)c1ccc(F)cc1`, the melting point was 134 to 136 °C.

Take `CC(C)C[C@@H](CO)NC(=O)[C@H](Cc1c[nH]cn1)NC(=O)[C@H](Cc1ccccc1)NC(=O)CCSSc1ncccc1[N+](=O)[O-]` ([Mpa](Npys)FH[Leu(ol)]): the melting point was in the range of 109 to 112 °C.

`CCOC(=O)CN(CP(=O)(ONNc1ccccc1)ONNc1ccccc1)C(=O)C(F)(F)F` displayed a melting point of 113 to 116 °C.

In the case of `N#Cc1ccc2[nH]cc(CCNCC(F)(F)F)c2c1`, the melting point was determined as 102 °C.

`NC(=O)c1cccc2nccc(O)c12` displayed a melting point of 205 to 207 °C.

In the case of `CCOC(=O)CCCCCCC1NC(=O)NC1=O` (stereo not given), the melting point was determined as 110 °C.

For the compound `C[C@@H]1CN(c2ccc([N+](=O)[O-])cc2C#N)C[C@H](C)N1`, the melting point lay in the range of 109 to 110 °C.

`Cc1ccccc1C(c1c[nH]cn1)c1ccccc1C`: the melting point fell in the range of 228 to 231 °C.

`CCOP(=O)(OCC)C1Cc2cc(C(F)(F)F)cc3[nH]c(=O)c(=O)n(c23)C1` (stereo not given) showed a melting point of 253 °C.

Consider `COc1cc(N)c(Cl)cc1C(=O)NCC1CCC(C)N1Cc1ccccc1` (stereo not given), for which the melting point was 136 to 137 °C.

`CCCOc1cc(-n2c(=O)cc(C(F)(F)F)n(C)c2=O)c(F)cc1Cl` displayed a melting point of 103 to 104 °C.

Regarding `COc1ccc2oc(C(=O)c3cc(F)ccc3N3CCOCC3)cc2c1`, the melting point lay within 85 to 88 °C.

`COCCNC(=O)Nc1ccc([N+](=O)[O-])cc1O` had a melting point of 190 to 191 °C.

The compound `COC1CC(C)(OCc2ccccc2)C2COC1O2` (stereo not given) had a melting point of 45 to 46 °C.

Take `O=CNC(C(=O)O)c1ccccc1` (stereo not given): the melting point was in the range of 170 to 175 °C.

In turn, `O=C1N=C(N2CCOCC2)SC1Cc1cccc(-c2ccc(O)c(C34CC5CC(CC(C5)C3)C4)c2)c1` (stereo not given) displayed a melting point of 129 to 131 °C.

As to `N#Cc1c(N2CCN(C(=O)c3ccco3)CC2)c2cccnc2n(Cc2ccccc2)c1=O`, the melting point turned out to be 206 °C.

Consider `Cc1c(Cl)cccc1Nc1ncccc1C(=O)OCOC(=O)C(C)(C)C`, for which the melting point was in the range of 90 to 91 °C.

With `Cc1cc(C)c(-c2nc3ccc(C(=O)c4ccccc4)cc3[nH]2)[nH]1`, the melting point was in the range of 225 to 229 °C.

For the compound `Cc1oc(-c2ccccc2)nc1CCOc1ccc(CCCO)cc1`, the melting point was 99 to 100 °C.

Compound `CCS(=O)(=O)N1CCN(c2ccc(NC(=O)c3cc(=O)c4cc(F)cc(N5CCN(C)CC5)c4o3)cc2)CC1` registered a melting point of 233 to 234 °C.

As to `Cc1ccc2cccc(OCC(=O)c3ccccc3)c2n1`, the melting point was 70 to 71 °C.

In the case of `CC=COCCC[C@H]1CC[C@H](c2cccc(F)c2F)CC1`, the melting point was in the range of 35.5 to 36.9 °C.

Take `Cc1nccn1-c1nc(NCc2ccccc2)c2ccccc2n1`: the melting point fell in the range of 182 to 186 °C.

With `CCCc1nc2c(N)nc3ccccc3c2n1CC(OCC)OCC`, the melting point is 148 to 150 °C.
